{"source": "patent US11357766B2", "about": "“Compositions and methods for treating cancer” (Texas Tech University System, priority 2017, dated 2022)", "key": {"[1]": {"tested_on": "AsPC1, BxPC3, PANC1, MIAPaCa2, PO2, A375VR, SKMEL-28, HCT-116, 4T1, U87, U251, T98G, CT2A cells", "assay": "Cytotoxicity studies, sulforhodamine B (SRB) assay", "assay_type": "cell-based, human and murine", "conditions": "range over all the cell lines, read-out: IC50 (cell survival)", "description": "FIGS. 1A to 1E show the effect of Pimavanserin tartrate suppresses the cell survival of pancreatic cancer cells. FIGS. 1F to 1G show the effect of pimavanserin tartrate suppresses the cell survival of melanoma cells. […] In the figures, the following cancer cells were evaluated: AsPC1 cells (FIG. 1A), BxPC3 cells (FIG. 1B), PANC1 cells (FIG. 1C), MIAPaCa2 cells (FIG. 1D), PO2 cells (FIG. 1E), A375VR cells (FIG. 1F), SKMEL-28 cells (FIG. 1G), HCT-116 cells (FIG. 1H), 4T1 cells (FIG. 1I), U87 cells (FIG. 1J), U251 cells (FIG. 1K), T98G vells (FIG. 1L), CT2A cells (FIG. 1M) which were treated with varied concentrations of pimavanserin tartrate for 24, 48 and 72 hours. Cell survival was determined by sulforhodamine B assay to estimate the IC50 values. The studies were repeated independently for three times with 4 replicates in each test. Values are plotted as mean±SD and the statistical significance level was considered as p<0.05.\nCell culture. Human pancreatic cancer cell lines AsPC1, BxPC3, PANC1, MIAPaCa2 cells, SKMEL-28 human melanoma cells, U87, U251, T98G human glioblastoma cells, and human colon cancer cell line HCT-116 were purchased from ATCC (Rockville, Md.). CT2A murine glioblastoma cells was a kind gift from Dr. Jill Edgar, Boston College, Boston. Cell lines were authenticated by STR analysis at TTUHSC core facilities (Lubbock, Tex.). […]\nCytotoxicity studies. The cytotoxic effects of pimavanserin tartrate in AsPC1, BxPC3, PANC1, MIAPaCa2, PO2, A375VR, SKMEL-28, HCT-116, 4T1, U87, U251, T98G, CT2A cells were determined by sulforhodamine B (SRB) assay. […] The optical density was measured using plate reader (Biotek instruments) as described by the present inventors (12).\nPimavanserin inhibited the proliferation of cancer cells, which included pancreatic cancer, melanoma, colon cancer, glioblastoma and breast cancer cells. The cytotoxic effects of pimavanserin were evaluated by SRB assay in the above mentioned cancer cells. […]"}, "[2]": {"tested_on": "orthotopically implanted PANC1-luc tumors", "assay": "Orthotopic pancreatic tumor model", "assay_type": "in vivo", "description": "1×10^6 PANC-1 luc cells were surgically implanted on the pancreas of 4-6 week old female athymic nude mice (n=5). Mice were treated with 10 mg/kg pimavanserin tartrate at day 17 till day 69. In FIG. 5A tumor luminescence was measured about twice a week and plotted against days. Values are plotted as mean±SEM. In FIG. 5B orthotopic tumors were aseptically removed and the tumor size was compared between control and pimavanserin tartrate treated group. […] The average weight of the mice is plotted against days. Values are plotted as mean±SEM.\nOrthotopic pancreatic tumor model. 4-6 week old female athymic nude mice were used for orthotopic injection. All the experiments were performed under the strict compliance and regulations approved from Institutional Animal Care and Use Committee (IACUC), Texas Tech University Health Sciences Center, Amarillo, Tex. Mice were anesthetized by using isoflorane and a minor incision was made in the left abdomen. Stably transfected luciferase-expressing PANC1 (PANC1-luc) cells were orthotopically-implanted in the pancreas. 1×10^6 exponentially growing PANC1-luc cells in 20 μl PBS suspension were injected into the sub-capsular region on the pancreas using a 30-gauge sterile needle. The peritoneum and skin incisions were closed sequentially with absorbable suture. Buprenorphine was administered as a pain killer to mice at every 8 hours for 2 days. The growth of orthotopically-implanted tumors was monitored by measuring the luminescence by IVIS imaging (Calliper Life Sciences). In order to determine the basal luminescence value, mice were imaged on the same day after injecting luciferin (3 mg/mouse, i.p.). Mice were randomly divided into two groups (control and treatment) on day 17 after orthotopic injection of PANC1 luc cells. Control group received vehicle only whereas treatment group received 10 mg/kg pimavanserin tartrate by oral gavage everyday. The study was terminated at day 69 by humanely euthanizing the mice using CO2 overdose. The mice was dissected and representative mouse from control and treatment groups were imaged for luminescence. The pancreas from control and treatment groups were aseptically excised out and snap frozen for western blot analysis, whereas few pancreas were fixed in formalin for immunohistochemical and TUNEL analysis. Mice weight was monitored once a week.\nPimavanserin inhibits the growth of orthotopic pancreatic tumors. In order to further validate the in-vivo efficacy of pimavanserin, PANC-1 luc cells were orthotopically implanted into the pancreas of athymic nude mice. After 17 days of tumor implantation, mice were treated with 10 mg/kg pimavanserin by oral gavage everyday. […] After terminating the experiment, tumors were removed and weighed. The average weight of pimavanserin treated tumors was 46% less when compared to the tumors excised form control group (FIGS. 5B & 5D). Furthermore, the inventors also compared the luminescence between both the groups in isolated pancreas."}, "[3]": {"tested_on": "pancreatic cancer cells", "assay": "Glycolysis, mitochondrial respiration and marker expression in pancreatic cancer cells", "assay_type": "cell-based"}}, "note": "Where two headings read alike, the source gives them in different places.", "data": [{"smiles": "CC(C)COc1ccc(CNC(=O)N(Cc2ccc(F)cc2)C2CCN(C)CC2)cc1", "note": "[pimavanserin, N-(4-fluorophenylmethyl)-N-(1-methylpiperidin-4-yl)-N′-(4-(2-methylpropyloxy)phenylmethyl)carbamide]", "values": [{"measurement": "IC50", "setting": "[1]; 24 hours", "value": "7 to 15", "unit": "µM"}, {"measurement": "IC50", "setting": "[1]; 48 hours", "value": "3 to 8", "unit": "µM"}, {"measurement": "IC50", "setting": "[1]; 72 hours", "value": "3 to 8", "unit": "µM"}, {"measurement": "overall weight of the mice vs control (general signs of toxicity)", "setting": "[2]; 10 mg/kg oral gavage everyday", "value": "did not reduce"}, {"measurement": "suppression of orthotopic pancreatic tumor growth", "setting": "[2]; 10 mg/kg oral gavage everyday", "value": 75, "unit": "%"}, {"measurement": "total flux (luminescence) at the end of the experiment", "setting": "[2]; 10 mg/kg oral gavage everyday from day 17, day 69, control 1.45542×10^9 photons/second", "value": "3.386×10^8 photons/sec"}, {"measurement": "decrease of luminescence vs control group", "setting": "[2]; 10 mg/kg oral gavage everyday, end of the experiment", "value": 75, "unit": "%"}, {"measurement": "average weight of tumors, less than control group", "setting": "[2]; 10 mg/kg oral gavage everyday, excised tumors after terminating the experiment", "value": 46, "unit": "%"}, {"measurement": "cleavage of caspase3 and PARP", "setting": "[3]; Western blot", "value": "increasing"}, {"measurement": "expression of main metabolic markers Hexokinase-1, LDH-A and FOXM1", "setting": "[3]; Western blot", "value": "inhibits"}, {"measurement": "glycolysis and mitochondrial respiration", "setting": "[3]; pancreatic cancer cells", "value": "inhibits"}, {"measurement": "key oncogenic markers pAkt(S473), pSTAT3 (Y705 & S727), β-catenin, Cyclin D1, Mc1-1, HER2, EGFR, VEGFR2, c-Myc, CD44, Oct-4", "setting": "[3]; pancreatic cancer cells", "value": "inhibiting"}]}]}
